{"source": "patent EP0092060A1", "about": "“Pharmaceutical products in sustained-release form, and their preparation process” (LABORATORI PROPHIN Industria Chimica Farmaceutica S.p.A., priority 1982, dated 1983)", "key": {"[1]": {"assay": "Drug release (dissolution), USP XX paddle apparatus, distilled water at 37°C", "assay_type": "physicochemical", "details": "for time to total release: drug simply pasted/mixed into the polymer support matrix (uncoated nuclei); for release kinetics / release rate: nuclei covered with the diffusion regulating film; for release rate: during the release period; for influence of the second film on the drug diffusion rate: nuclei with first and second films compared with first film only; for % drug released: distilled water at 37°C, average of 6 determinations", "procedure": "The Tiapride release was monitored for the uncoated nuclei, the nuclei with the first film applied, and the finished nuclei also comprising the second film.\nA USP XX paddle apparatus was used, the dissolving medium being distilled water at 37°C.\nThe obtained results given hereinafter are the average of 6 determinations.\nThe Diltiazem release rate was measured on noncoated nuclei, nuclei coated with the first film and the finalized form with the second film coating.\nA USP XX paddle apparatus was used and the dissolving medium was distilled water at 37°C."}, "[2]": {"assay": "Pharmacokinetic parameters obtained in man, used to calculate the optimum hourly dose", "details": "human, in vivo, read-out: elimination constant (Kel) (converted)"}, "[3]": {"details": "cited from earlier work"}}}
{"molecule": "COc1ccc([C@@H]2Sc3ccccc3N(CCN(C)C)C(=O)[C@@H]2OC(C)=O)cc1", "note": "[Diltiazem]", "values": [{"measurement": "time to total release", "setting": "[1]", "value": "totally released within two hours"}, {"measurement": "release kinetics", "setting": "[1]", "value": "on the order of zero"}, {"measurement": "release rate", "setting": "[1]", "value": "10 to 15", "unit": "mg/h"}, {"measurement": "influence of the second film on the drug diffusion rate", "setting": "[1]", "value": "practically no effect"}, {"measurement": "k el", "setting": "[2]", "value": "3.42e-05", "unit": "s⁻¹"}, {"measurement": "distribution volume (Vd)", "setting": "[3]; humans, unit not given", "value": 1065}, {"measurement": "half life", "setting": "[3]; in man", "value": 4, "unit": "h"}]}
{"molecule": "CCN(CC)CCNC(=O)c1cc(S(C)(=O)=O)ccc1OC.Cl", "note": "[Tiapride, N-diethylaminoethyl-2-methoxy-5-methylsulphonyl-benzamide hydrochloride]", "values": [{"measurement": "time to total release", "setting": "[1]", "value": "totally released within two hours"}, {"measurement": "release kinetics", "setting": "[1]", "value": "zero order"}, {"measurement": "release rate", "setting": "[1]", "value": "10 to 15", "unit": "mg/h"}, {"measurement": "% drug released", "setting": "[1]; nuclei covered with the first and second films, 1 hour", "value": 0, "unit": "%"}, {"measurement": "% drug released", "setting": "[1]; nuclei covered with the first and second films, 2 hours", "value": 1, "unit": "%"}, {"measurement": "% drug released", "setting": "[1]; nuclei covered with the first and second films, 3 hours", "value": 16, "unit": "%"}, {"measurement": "% drug released", "setting": "[1]; nuclei covered with the first and second films, 4.5 hours", "value": 34, "unit": "%"}, {"measurement": "% drug released", "setting": "[1]; nuclei covered with the first and second films, 5.5 hours", "value": 44, "unit": "%"}, {"measurement": "% drug released", "setting": "[1]; nuclei covered with the first and second films, 6.5 hours", "value": 57, "unit": "%"}, {"measurement": "% drug released", "setting": "[1]; nuclei covered with the first and second films, 7.5 hours", "value": 71, "unit": "%"}, {"measurement": "% drug released", "setting": "[1]; nuclei covered with the first and second films, 8.5 hours", "value": 83, "unit": "%"}, {"measurement": "% drug released", "setting": "[1]; nuclei covered with the first film, 1 hour", "value": 2, "unit": "%"}, {"measurement": "% drug released", "setting": "[1]; nuclei covered with the first film, 2 hours", "value": 4, "unit": "%"}, {"measurement": "% drug released", "setting": "[1]; nuclei covered with the first film, 3 hours", "value": 14, "unit": "%"}, {"measurement": "% drug released", "setting": "[1]; nuclei covered with the first film, 3.5 hours", "value": 19.3, "unit": "%"}, {"measurement": "% drug released", "setting": "[1]; nuclei covered with the first film, 4.5 hours", "value": 34, "unit": "%"}, {"measurement": "% drug released", "setting": "[1]; nuclei covered with the first film, 5 hours", "value": 47, "unit": "%"}, {"measurement": "% drug released", "setting": "[1]; nuclei covered with the first film, 6 hours", "value": 57, "unit": "%"}, {"measurement": "% drug released", "setting": "[1]; nuclei covered with the first film, 7 hours", "value": 69, "unit": "%"}, {"measurement": "% drug released", "setting": "[1]; nuclei covered with the first film, 8 hours", "value": 83, "unit": "%"}, {"measurement": "influence of the second film on the drug diffusion rate", "setting": "[1]", "value": "practically no influence"}, {"measurement": "% drug released", "setting": "[1]; uncoated nuclei, 15 min", "value": 37.8, "unit": "%"}, {"measurement": "% drug released", "setting": "[1]; uncoated nuclei, 30 min", "value": 51.6, "unit": "%"}, {"measurement": "% drug released", "setting": "[1]; uncoated nuclei, 60 min", "value": 71.1, "unit": "%"}, {"measurement": "% drug released", "setting": "[1]; uncoated nuclei, 90 min", "value": 80.3, "unit": "%"}, {"measurement": "% drug released", "setting": "[1]; uncoated nuclei, 120 min", "value": 86.0, "unit": "%"}, {"measurement": "k el", "setting": "[2]", "value": "4.81e-05", "unit": "s⁻¹"}, {"measurement": "hematic peak after administering 100 mg (Cp)", "setting": "[3]; in man, 100 mg", "value": 0.8, "unit": "µg/mL"}, {"measurement": "half life", "setting": "[3]; in man", "value": 4, "unit": "h"}, {"measurement": "therapeutic range", "setting": "[3]; in man", "value": "0.6 - 0.9 mg/l of plasma"}]}
